Key:
Assay in all cases: CFTR current in FRT cells expressing G551D CFTR, […] compound with VX-770
Type in all cases: cell-based
[1] = biological target: T1, cystic fibrosis transmembrane conductance regulator (CFTR) (Homo sapiens, UniProt P13569, G551D)
[2] = biological target: T1, cystic fibrosis transmembrane conductance regulator (CFTR); remark: listed apart in the source
[3] = biological target: T1, cystic fibrosis transmembrane conductance regulator (CFTR); remark: listed apart in the source

T1 sequence (P13569 whole entry G551D): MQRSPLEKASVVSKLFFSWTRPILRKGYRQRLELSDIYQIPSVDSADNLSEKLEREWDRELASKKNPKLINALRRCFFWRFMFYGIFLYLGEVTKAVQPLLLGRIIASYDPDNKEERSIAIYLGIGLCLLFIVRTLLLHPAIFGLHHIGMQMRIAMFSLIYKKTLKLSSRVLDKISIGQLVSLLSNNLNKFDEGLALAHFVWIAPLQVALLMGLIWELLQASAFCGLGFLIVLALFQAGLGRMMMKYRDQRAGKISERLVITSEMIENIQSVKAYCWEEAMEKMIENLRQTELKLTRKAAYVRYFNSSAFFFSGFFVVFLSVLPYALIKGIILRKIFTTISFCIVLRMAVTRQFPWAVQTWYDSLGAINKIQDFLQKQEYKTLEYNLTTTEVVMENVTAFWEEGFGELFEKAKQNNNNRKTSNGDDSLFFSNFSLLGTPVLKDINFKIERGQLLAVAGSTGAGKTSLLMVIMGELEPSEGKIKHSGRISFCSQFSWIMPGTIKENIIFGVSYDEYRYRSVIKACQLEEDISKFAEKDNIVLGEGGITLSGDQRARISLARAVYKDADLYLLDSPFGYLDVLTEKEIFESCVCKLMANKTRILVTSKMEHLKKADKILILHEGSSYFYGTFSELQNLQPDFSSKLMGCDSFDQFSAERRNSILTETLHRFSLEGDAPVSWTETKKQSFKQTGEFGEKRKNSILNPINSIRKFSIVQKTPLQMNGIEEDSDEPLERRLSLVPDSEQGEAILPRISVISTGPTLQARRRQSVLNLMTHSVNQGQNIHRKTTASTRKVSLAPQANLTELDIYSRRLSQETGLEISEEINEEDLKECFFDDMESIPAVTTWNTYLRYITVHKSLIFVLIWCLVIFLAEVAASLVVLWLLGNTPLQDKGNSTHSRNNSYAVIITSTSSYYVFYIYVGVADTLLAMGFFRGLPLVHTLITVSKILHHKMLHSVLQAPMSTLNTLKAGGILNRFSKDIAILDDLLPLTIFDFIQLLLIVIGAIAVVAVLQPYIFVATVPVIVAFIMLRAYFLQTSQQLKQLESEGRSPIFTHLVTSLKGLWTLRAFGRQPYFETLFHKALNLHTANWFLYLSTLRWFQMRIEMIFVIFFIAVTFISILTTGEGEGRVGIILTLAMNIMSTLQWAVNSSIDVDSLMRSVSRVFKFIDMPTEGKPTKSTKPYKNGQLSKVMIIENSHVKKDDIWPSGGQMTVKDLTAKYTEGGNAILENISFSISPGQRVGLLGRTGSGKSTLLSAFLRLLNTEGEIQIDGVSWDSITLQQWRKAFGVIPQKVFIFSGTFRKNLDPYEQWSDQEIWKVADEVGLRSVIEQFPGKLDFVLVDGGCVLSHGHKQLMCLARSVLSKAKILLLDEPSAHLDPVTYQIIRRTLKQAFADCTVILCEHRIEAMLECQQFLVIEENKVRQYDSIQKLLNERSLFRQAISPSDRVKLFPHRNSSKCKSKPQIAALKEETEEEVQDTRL

SMILES: CC(C)C1=Nn2c(nnc2-c2cc(Cl)ccc2Br)SC1 [9c]
- CFTR current in FRT cells expressing G551D CFTR, 10 μM compound with VX-770 [1]: 2-bromo-5-chloro series with 9c and 9d showing the highest levels of activity

SMILES: COc1ccc(Br)c(-c2nnc3n2N=C(C(C)C)CS3)c1 [10a]
- % G551D CFTR stimulation compared to VX-770 alone [2]: 232 % G551D CFTR stimulation compared to VX-770 alone

SMILES: CC(C)(C)C1=Nn2c(nnc2-c2ccc(Cl)cc2Cl)SC1 [8d]
- % gain above VX-770 alone [3]: ~ 400 % gain above VX-770 alone

Reference: article PMC10577695, “A Novel 7H-[1,2,4]Triazolo[3,4-b]thiadiazine-based Cystic Fibrosis Transmembrane Conductance Regulator Potentiator Directed toward Treatment of Cystic Fibrosis” (ACS Medicinal Chemistry Letters, 2023)
